Columns and labels:
[1] = test system: antibodies in sera from SARS patients (sera 1a, 1b, 2, 6, 37, 62, London, SARS-yellow, SARS-green); format: binding, human; set-up: Binding of serum 6 to linear peptides of protein X1 of SARS-CoV Urbani / Binding of serum 37 to linear peptides of protein X1 of SARS-CoV Urbani / Binding of serum 6 to looped/cyclic peptide (PEPSCAN-ELISA) / Binding of serum 37 to looped/cyclic peptide (PEPSCAN-ELISA) / Binding of serum 37 to looped/cyclic peptides of protein X1 of SARS-CoV Urbani / Binding of serum 6 to linear peptides of protein X2 / Binding of serum 37 to linear peptides of protein X2 / Binding of serum 37 to looped/cyclic peptides of protein X2 of SARS-CoV Urbani / Binding of serum 6 to linear peptides of protein M of SARS-CoV Urbani / Binding of serum 37 to linear peptides of protein M of SARS-CoV Urbani / Binding of serum 6 to looped/cyclic peptides of protein M of SARS-CoV Urbani / Binding of serum 37 to looped/cyclic peptides of protein M of SARS-CoV Urbani / Binding of serum 6 to linear peptides of protein X3 of SARS-CoV Urbani / Binding of serum 37 to linear peptides of protein X3 of SARS-CoV Urbani / Binding of serum 37 to looped/cyclic peptides of protein X3 of SARS-CoV Urbani / Binding of serum 6 to linear peptides of protein X4 of SARS-CoV Urbani / Binding of serum 37 to linear peptides of protein X4 of SARS-CoV Urbani / Binding of serum 37 to looped/cyclic peptides of protein X4 of SARS-CoV Urbani / Binding of serum 6 to linear peptides of protein X5 of SARS-CoV Urbani / Binding of serum 37 to linear peptides of protein X5 of SARS-CoV Urbani / Binding of serum 37 to looped/cyclic peptides of protein X5 of SARS-CoV Urbani / Binding of serum 6 to linear peptides of protein N of SARS-CoV Urbani / Binding of serum 37 to linear peptides of protein N of SARS-CoV Urbani / Binding of serum 6 to linear peptide (PEPSCAN-ELISA) / Binding of serum 1a to looped/cyclic peptides of protein N of SARS-CoV Urbani / Binding of serum 1b to looped/cyclic peptides of protein N of SARS-CoV Urbani / Binding of serum 2 to looped/cyclic peptides of protein N of SARS-CoV Urbani / Binding of serum 6 to looped/cyclic peptides of protein N of SARS-CoV Urbani / Binding of serum 37 to looped/cyclic peptides of protein N of SARS-CoV Urbani / Binding of serum 62 to looped/cyclic peptides of protein N of SARS-CoV Urbani / Binding of serum London to looped/cyclic peptides of protein N of SARS-CoV Urbani / Binding of serum SARS-green to looped/cyclic peptides of protein N of SARS-CoV Urbani: unit not given here
[2] = test system: control sera (pooled serum of ten healthy LUMC hospital workers; commercial negative donor pooled serum from the Dutch bloodbank); format: binding, human; set-up: Binding of Control serum LUMC to linear peptides / Binding of Control serum Blood-bank to linear peptides / Binding of Control serum LUMC to looped peptides / Binding of Control Serum Blood-Bank to Looped peptides / Binding of Control serum LUMC to linear peptides of the protein M of SARS-CoV Urbani / Binding of Control serum Blood-bank to linear peptides of the protein M of SARS-CoV Urbani / Binding of Control serum LUMC to looped peptides of the protein M of SARS-CoV Urbani / Binding of Control Serum Blood-Bank to Looped peptides of the protein M of SARS-CoV Urbani: unit not given here
[3] = test system: rabbit serum obtained by immunizing a rabbit with the SARS-CoV strain Frankfurt 1; format: binding; set-up: Binding of a rabbit serum to linear peptides / Binding of a rabbit serum to looped peptides / Rabbit serum linear peptides / Rabbit serum looped peptides / Binding of a rabbit serum to linear peptides of protein N of SARS-CoV Urbani (Rabbit serum linear peptides) / Binding of a rabbit serum to looped/cyclic peptides of protein N of SARS-CoV Urbani (Rabbit serum looped peptides): unit not given here

ALGKVLPFHRWHTMV
Binding of serum 1a to linear peptides of protein X5 of SARS-CoV Urbani [1]: 0.9
Binding of serum 1a to looped/cyclic peptides of protein X5 of SARS-CoV Urbani [1]: 0.4
Binding of serum 1b to linear peptides of protein X5 of SARS-CoV Urbani [1]: 0.5
Binding of serum 1b to looped/cyclic peptides of protein X5 of SARS-CoV Urbani [1]: 0.0
Binding of serum 2 to linear peptides of protein X5 of SARS-CoV Urbani [1]: 0.7
Binding of serum 2 to looped/cyclic peptides of protein X5 of SARS-CoV Urbani [1]: 0.6
Binding of serum 6 to linear peptides of protein X5 of SARS-CoV Urbani [1]: 0.6
Binding of serum 6 to looped/cyclic peptides of protein X5 of SARS-CoV Urbani [1]: 0.3
Binding of serum 37 to linear peptides of protein X5 of SARS-CoV Urbani [1]: 0.6
Binding of serum 37 to looped/cyclic peptides of protein X5 of SARS-CoV Urbani [1]: 0.5
Binding of serum 62 to linear peptides of protein X5 of SARS-CoV Urbani [1]: 0.7
Binding of serum 62 to looped/cyclic peptides of protein X5 of SARS-CoV Urbani [1]: 0.5
Binding of serum London to linear peptides of protein X5 of SARS-CoV Urbani [1]: 0.7
Binding of serum London to looped/cyclic peptides of protein X5 of SARS-CoV Urbani [1]: 0.2
Binding of serum SARS-green to linear peptides of protein X5 of SARS-CoV Urbani [1]: 0.5
Binding of serum SARS-green to looped/cyclic peptides of protein X5 of SARS-CoV Urbani [1]: 0.6
Binding of serum SARS-yellow to linear peptides of protein X5 of SARS-CoV Urbani [1]: 0.2
Binding of serum SARS-yellow to looped/cyclic peptides of protein X5 of SARS-CoV Urbani [1]: 0.1
Binding of Control Serum Blood-Bank to Looped peptides [2]: 0.1
Binding of Control serum Blood-bank to linear peptides [2]: 0.8
Binding of Control serum LUMC to linear peptides [2]: 0.5
Binding of Control serum LUMC to looped peptides [2]: 0.5
Rabbit serum linear peptides [3]: 0.6
Rabbit serum looped peptides [3]: 0.1

ALQELLIQQWIQFMM
Binding of serum 1a to linear peptides of protein X2 [1]: 0.7
Binding of serum 1a to looped/cyclic peptides of protein X2 of SARS-CoV Urbani [1]: 0.7
Binding of serum 1b to linear peptides of protein X2 [1]: 0.6
Binding of serum 1b to looped/cyclic peptides of protein X2 of SARS-CoV Urbani [1]: 0.5
Binding of serum 2 to linear peptides of protein X2 [1]: 0.4
Binding of serum 2 to looped/cyclic peptides of protein X2 of SARS-CoV Urbani [1]: 0.4
Binding of serum 6 to linear peptides of protein X2 [1]: 0.4
Binding of serum 6 to looped/cyclic peptides of protein X2 of SARS-CoV Urbani [1]: 0.2
Binding of serum 37 to linear peptides of protein X2 [1]: 0.6
Binding of serum 37 to looped/cyclic peptides of protein X2 of SARS-CoV Urbani [1]: 0.5
Binding of serum 62 to linear peptides of protein X2 [1]: 0.6
Binding of serum 62 to looped/cyclic peptides of protein X2 of SARS-CoV Urbani [1]: 0.7
Binding of serum London to linear peptides of protein X2 [1]: 0.5
Binding of serum London to looped/cyclic peptides of protein X2 of SARS-CoV Urbani [1]: 0.2
Binding of serum SARS-green to linear peptides of protein X2 [1]: 0.7
Binding of serum SARS-green to looped/cyclic peptides of protein X2 of SARS-CoV Urbani [1]: 0.4
Binding of serum SARS-yellow to linear peptides of protein X2 [1]: 0.4
Binding of serum SARS-yellow to looped/cyclic peptides of protein X2 of SARS-CoV Urbani [1]: 0.5
Binding of Control Serum Blood-Bank to Looped peptides [2]: 0.7
Binding of Control serum Blood-bank to linear peptides [2]: 0.5
Binding of Control serum LUMC to linear peptides [2]: 0.4
Binding of Control serum LUMC to looped peptides [2]: 0.7
Binding of a rabbit serum to linear peptides [3]: 0.2
Binding of a rabbit serum to looped peptides [3]: 0.4

From patent US20070128217A1 (priority 2003, published 2007)
